In article PMC7407272, “Induction of Lysosome Membrane Permeabilization as a Therapeutic Strategy to Target Pancreatic Cancer Stem Cells” (Cancers, 2020):

Key:
Experiment in all cases: KINOMEscan
Type in all cases: binding
Conditions in all cases: read-out: % Ctrl
[1] = target: T1, MELK (Homo sapiens, UniProt Q14680)
T1 construct: purchased DiscoveRx KINOMEscan

[2] = target: T2, MAP4K5 (Homo sapiens, UniProt Q9Y4K4)
T2 construct: purchased DiscoveRx KINOMEscan

[3] = target: T3, RAF1 (Homo sapiens, UniProt P04049)
T3 construct: purchased DiscoveRx KINOMEscan

[4] = target: T4, SRMS (Homo sapiens, UniProt Q9H3Y6)
T4 construct: purchased DiscoveRx KINOMEscan

[5] = target: T5, PRKD3 (Homo sapiens, UniProt O94806)
T5 construct: purchased DiscoveRx KINOMEscan

[6] = target: T6, SIK (Homo sapiens, UniProt P57059)
T6 construct: purchased DiscoveRx KINOMEscan

[7] = target: T7, p38-delta (Homo sapiens, UniProt O15264)
T7 construct: purchased DiscoveRx KINOMEscan

[8] = target: T8, PRKG2 (Homo sapiens, UniProt Q13237)
T8 construct: purchased DiscoveRx KINOMEscan

[9] = target: T9, ASK2 (Homo sapiens, UniProt O95382)
T9 construct: purchased DiscoveRx KINOMEscan

[10] = target: T10, ABL1(Y253F)-P (Homo sapiens, UniProt P00519, Y253F)
T10 construct: purchased DiscoveRx KINOMEscan

[11] = target: T11, PIP5K1A (Homo sapiens, UniProt Q99755)
T11 construct: purchased DiscoveRx KINOMEscan

[12] = target: T12, CDKL1 (Homo sapiens, UniProt Q00532)
T12 construct: purchased DiscoveRx KINOMEscan

[13] = target: T13, LKB1 (Homo sapiens, UniProt Q15831)
T13 construct: purchased DiscoveRx KINOMEscan

[14] = target: T14, HIPK2 (Homo sapiens, UniProt Q9H2X6)
T14 construct: purchased DiscoveRx KINOMEscan

[15] = target: T15, MAP3K2 (Homo sapiens, UniProt Q9Y2U5)
T15 construct: purchased DiscoveRx KINOMEscan

[16] = target: T16, RPS6KA4(KD2-C-t.) (Homo sapiens, UniProt O75676)
T16 construct: RPS6KA4(KD2-C-t.); purchased DiscoveRx KINOMEscan

[17] = target: T17, TIE2 (Homo sapiens, UniProt Q02763)
T17 construct: purchased DiscoveRx KINOMEscan

[18] = target: T18, KIT-autoi. (Homo sapiens, UniProt P10721)
T18 construct: purchased DiscoveRx KINOMEscan

[19] = target: T19, BRAF (Homo sapiens, UniProt P15056)
T19 construct: purchased DiscoveRx KINOMEscan

[20] = target: T20, ABL2 (Homo sapiens, UniProt P42684)
T20 construct: purchased DiscoveRx KINOMEscan

[21] = target: T21, FLT3(D835H) (Homo sapiens, UniProt P36888, D835H)
T21 construct: purchased DiscoveRx KINOMEscan

T11 sequence (Q99755 whole entry): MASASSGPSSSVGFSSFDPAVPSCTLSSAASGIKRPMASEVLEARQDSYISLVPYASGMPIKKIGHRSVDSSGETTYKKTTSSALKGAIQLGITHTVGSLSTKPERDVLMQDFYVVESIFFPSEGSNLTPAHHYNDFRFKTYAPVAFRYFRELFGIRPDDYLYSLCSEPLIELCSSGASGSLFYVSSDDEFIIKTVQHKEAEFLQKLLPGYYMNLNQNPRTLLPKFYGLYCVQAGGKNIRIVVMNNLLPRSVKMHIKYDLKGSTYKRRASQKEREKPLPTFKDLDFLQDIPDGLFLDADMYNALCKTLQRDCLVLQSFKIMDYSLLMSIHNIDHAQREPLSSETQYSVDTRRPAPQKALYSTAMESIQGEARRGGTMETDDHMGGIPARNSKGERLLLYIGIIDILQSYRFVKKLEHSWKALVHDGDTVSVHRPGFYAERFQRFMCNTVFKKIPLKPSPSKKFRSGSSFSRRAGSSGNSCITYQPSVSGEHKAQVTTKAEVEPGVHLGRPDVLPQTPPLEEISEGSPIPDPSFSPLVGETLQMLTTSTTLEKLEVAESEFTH
T14 sequence (Q9H2X6 whole entry): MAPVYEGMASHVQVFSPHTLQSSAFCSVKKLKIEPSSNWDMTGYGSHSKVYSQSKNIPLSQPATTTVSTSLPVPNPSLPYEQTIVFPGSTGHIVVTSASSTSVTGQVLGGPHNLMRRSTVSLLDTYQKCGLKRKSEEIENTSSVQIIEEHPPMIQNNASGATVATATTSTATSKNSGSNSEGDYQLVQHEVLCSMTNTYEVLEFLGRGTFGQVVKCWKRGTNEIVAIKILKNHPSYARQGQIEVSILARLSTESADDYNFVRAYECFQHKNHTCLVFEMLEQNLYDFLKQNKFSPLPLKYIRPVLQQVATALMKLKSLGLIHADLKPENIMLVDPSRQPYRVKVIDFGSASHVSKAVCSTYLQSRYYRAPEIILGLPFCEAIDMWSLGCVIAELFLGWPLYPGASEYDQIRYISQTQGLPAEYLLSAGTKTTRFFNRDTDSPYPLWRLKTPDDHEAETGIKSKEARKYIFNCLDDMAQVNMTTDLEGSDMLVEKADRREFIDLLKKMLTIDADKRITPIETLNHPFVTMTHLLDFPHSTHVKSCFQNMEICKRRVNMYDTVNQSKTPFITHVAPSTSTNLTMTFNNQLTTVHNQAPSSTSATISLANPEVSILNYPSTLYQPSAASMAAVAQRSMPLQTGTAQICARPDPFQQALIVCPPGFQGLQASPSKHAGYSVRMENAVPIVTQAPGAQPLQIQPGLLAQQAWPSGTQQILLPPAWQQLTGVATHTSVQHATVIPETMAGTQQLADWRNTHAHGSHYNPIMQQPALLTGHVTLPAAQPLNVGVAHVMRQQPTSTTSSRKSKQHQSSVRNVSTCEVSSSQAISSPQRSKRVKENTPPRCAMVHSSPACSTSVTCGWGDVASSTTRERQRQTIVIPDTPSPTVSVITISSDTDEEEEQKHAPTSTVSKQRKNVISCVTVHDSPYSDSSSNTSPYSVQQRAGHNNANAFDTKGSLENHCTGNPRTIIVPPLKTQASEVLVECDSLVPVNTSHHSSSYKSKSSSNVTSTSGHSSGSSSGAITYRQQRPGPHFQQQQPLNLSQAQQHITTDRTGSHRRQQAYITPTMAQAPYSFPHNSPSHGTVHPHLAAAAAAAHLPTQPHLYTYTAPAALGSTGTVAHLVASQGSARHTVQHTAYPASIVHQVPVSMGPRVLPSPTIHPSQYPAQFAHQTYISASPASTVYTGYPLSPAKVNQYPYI
T2 sequence (Q9Y4K4 whole entry): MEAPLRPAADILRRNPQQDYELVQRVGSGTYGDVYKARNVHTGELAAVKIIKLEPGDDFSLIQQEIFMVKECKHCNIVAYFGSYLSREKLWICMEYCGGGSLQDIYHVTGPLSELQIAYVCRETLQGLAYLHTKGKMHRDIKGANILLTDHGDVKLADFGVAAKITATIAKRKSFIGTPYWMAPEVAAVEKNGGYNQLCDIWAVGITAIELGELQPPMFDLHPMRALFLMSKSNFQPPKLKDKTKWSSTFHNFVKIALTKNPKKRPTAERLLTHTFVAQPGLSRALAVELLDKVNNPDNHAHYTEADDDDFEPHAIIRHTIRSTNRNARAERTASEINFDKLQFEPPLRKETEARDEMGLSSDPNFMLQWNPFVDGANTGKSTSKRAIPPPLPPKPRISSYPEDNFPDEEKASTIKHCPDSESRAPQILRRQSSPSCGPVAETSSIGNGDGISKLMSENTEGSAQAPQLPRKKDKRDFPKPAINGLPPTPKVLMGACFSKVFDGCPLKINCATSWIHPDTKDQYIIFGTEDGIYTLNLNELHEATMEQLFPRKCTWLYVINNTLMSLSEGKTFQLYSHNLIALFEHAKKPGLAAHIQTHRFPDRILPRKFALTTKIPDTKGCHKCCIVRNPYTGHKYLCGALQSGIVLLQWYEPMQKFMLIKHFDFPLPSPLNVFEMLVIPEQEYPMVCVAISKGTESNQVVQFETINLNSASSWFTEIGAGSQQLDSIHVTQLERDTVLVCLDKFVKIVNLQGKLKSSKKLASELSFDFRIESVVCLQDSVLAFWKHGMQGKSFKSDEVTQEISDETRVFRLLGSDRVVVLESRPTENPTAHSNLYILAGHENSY
T12 sequence (Q00532 whole entry): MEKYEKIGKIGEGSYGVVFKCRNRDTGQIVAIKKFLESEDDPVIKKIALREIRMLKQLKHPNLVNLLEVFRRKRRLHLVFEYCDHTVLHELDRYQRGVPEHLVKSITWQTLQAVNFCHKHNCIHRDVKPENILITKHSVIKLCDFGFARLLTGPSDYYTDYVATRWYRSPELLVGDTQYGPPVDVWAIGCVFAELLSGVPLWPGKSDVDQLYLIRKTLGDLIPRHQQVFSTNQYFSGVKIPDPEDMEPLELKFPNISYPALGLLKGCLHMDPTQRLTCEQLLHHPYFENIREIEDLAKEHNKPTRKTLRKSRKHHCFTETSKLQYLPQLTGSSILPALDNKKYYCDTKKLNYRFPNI
T15 sequence (Q9Y2U5 whole entry): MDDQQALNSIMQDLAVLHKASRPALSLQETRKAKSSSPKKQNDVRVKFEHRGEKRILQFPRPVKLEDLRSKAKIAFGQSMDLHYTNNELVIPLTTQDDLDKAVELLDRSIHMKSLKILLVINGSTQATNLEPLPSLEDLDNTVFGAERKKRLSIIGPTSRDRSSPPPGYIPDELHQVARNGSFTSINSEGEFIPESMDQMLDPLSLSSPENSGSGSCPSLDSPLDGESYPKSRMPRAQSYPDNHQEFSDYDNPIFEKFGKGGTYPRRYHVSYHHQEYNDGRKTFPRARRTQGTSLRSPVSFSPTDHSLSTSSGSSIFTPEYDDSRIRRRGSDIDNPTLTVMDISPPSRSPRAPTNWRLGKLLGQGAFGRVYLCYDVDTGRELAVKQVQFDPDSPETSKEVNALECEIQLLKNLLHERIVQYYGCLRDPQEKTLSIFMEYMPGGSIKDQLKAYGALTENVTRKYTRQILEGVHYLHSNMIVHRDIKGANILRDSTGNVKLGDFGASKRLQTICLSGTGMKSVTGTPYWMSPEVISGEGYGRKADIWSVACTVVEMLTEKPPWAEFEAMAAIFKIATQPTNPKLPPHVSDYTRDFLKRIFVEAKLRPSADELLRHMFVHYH
T19 sequence (P15056 whole entry): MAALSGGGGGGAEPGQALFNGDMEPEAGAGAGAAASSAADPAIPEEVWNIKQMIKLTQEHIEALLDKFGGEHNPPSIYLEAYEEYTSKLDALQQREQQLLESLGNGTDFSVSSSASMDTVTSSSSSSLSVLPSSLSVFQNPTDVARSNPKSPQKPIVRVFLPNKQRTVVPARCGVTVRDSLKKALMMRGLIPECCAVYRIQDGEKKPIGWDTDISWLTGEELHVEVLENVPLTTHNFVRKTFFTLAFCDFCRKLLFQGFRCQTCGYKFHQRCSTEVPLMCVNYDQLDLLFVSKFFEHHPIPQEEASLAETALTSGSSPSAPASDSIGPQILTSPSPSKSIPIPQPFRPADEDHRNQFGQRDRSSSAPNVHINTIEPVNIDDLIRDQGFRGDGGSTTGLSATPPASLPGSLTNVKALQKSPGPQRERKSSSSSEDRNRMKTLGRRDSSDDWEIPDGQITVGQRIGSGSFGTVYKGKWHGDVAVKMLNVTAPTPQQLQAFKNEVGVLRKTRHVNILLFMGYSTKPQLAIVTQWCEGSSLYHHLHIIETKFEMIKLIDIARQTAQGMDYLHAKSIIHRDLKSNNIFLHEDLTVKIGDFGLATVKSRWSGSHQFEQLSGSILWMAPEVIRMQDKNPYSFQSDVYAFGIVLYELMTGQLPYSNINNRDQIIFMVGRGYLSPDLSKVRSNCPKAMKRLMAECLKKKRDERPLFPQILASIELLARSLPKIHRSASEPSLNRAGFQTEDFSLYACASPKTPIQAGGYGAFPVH
T16 sequence (O75676 372-772 limits assumed): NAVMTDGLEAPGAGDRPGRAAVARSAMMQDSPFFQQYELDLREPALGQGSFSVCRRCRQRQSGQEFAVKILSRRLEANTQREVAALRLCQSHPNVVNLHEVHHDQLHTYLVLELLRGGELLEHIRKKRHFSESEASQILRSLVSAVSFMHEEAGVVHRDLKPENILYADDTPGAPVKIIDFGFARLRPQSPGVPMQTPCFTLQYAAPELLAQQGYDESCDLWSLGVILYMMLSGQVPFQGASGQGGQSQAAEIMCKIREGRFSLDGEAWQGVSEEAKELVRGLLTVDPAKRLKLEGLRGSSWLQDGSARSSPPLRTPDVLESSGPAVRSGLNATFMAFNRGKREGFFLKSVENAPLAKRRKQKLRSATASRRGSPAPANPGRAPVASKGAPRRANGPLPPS

`CN1CCC(CNc2ccc3ncc(C(=O)Nc4cccc(OC(F)(F)F)c4)n3n2)CC1` [Cpd 2] showed a remaining binding at 1 µM [1] of 100%, a remaining binding at 1 µM [2] of 92% and a remaining binding at 1 µM [3] of 100%. For the same compound, the remaining binding at 1 µM [4] was 87%, the remaining binding at 1 µM [5] was 92% and the remaining binding at 1 µM [6] was 99%. It also gave a remaining binding at 1 µM [7] of 100%, a remaining binding at 1 µM [8] of 100% and a remaining binding at 1 µM [9] of 99%. For the same compound, the remaining binding at 1 µM [10] was 100%, the remaining binding at 1 µM [11] was 100% and the remaining binding at 1 µM [12] was 97%. It also gave a remaining binding at 1 µM [13] of 96%, a remaining binding at 1 µM [14] of 68% and a remaining binding at 1 µM [15] of 92%. It also gave a remaining binding at 1 µM [16] of 100%, a remaining binding at 1 µM [17] of 100% and a remaining binding at 1 µM [18] of 100%. It also gave a remaining binding at 1 µM [19] of 100%, a remaining binding at 1 µM [20] of 96% and a remaining binding at 1 µM [21] of 74%.
